We go through three compounds from ChEMBL document CHEMBL6092139, “AChE inhibitory activity of N-substituted natural galanthamine derivatives” (Bioorg Med Chem Lett, 2024).

The target in this test is Acetylcholinesterase (Homo sapiens, UniProt P22303). The test is described as follows: Inhibition of AChE (unknown origin) using acetylthiocholine iodide as substrate preincubated for 30 mins followed by substrate addition and measured after 3 mins by DTNB reagent based Ellman's method.
Chain of Acetylcholinesterase (P22303 whole entry): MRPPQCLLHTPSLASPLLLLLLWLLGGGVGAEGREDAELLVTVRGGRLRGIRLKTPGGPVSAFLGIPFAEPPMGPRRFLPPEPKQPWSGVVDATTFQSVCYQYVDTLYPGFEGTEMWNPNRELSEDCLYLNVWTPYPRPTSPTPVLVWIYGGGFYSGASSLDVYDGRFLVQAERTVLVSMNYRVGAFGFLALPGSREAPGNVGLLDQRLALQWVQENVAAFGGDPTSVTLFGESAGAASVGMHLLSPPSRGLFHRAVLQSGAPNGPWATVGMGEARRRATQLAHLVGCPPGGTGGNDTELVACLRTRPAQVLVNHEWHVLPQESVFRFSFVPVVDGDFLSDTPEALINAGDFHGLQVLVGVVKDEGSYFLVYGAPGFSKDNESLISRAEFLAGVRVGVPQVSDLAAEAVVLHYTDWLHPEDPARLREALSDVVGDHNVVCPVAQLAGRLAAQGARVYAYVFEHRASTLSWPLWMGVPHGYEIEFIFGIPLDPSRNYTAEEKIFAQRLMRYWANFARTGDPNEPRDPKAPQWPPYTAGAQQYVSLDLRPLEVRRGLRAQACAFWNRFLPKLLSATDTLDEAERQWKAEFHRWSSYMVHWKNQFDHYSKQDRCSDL
In general, IC50 refers to the concentration that gives 50% inhibition. A low value points to greater potency. Regarding `COc1ccc2c3c1O[C@H]1C[C@@H](O)C=C[C@@]31CCN(C=O)C2`, the midpoint of inhibition, the IC50, lay at 98.8 µM. In turn, `COc1ccc2c3c1O[C@H]1C[C@@H](O)C=C[C@@]31CCN(C(C)=O)C2` returned a concentration for half-maximal inhibition (IC50) of 9.8 µM. For `C=CCN1CC[C@@]23C=C[C@H](O)C[C@@H]2Oc2c(OC)ccc(c23)C1` [N-ALLYLNORGALANTHAMINE] the value was 0.18 µM.
